This is an account of results in the Kinase Knowledgebase extract (Sharma et al. 2016).

SMILES strings stand for the structures. A value given as a limit tells only on which side of the number the result lay.

The assay deals with MAPK14 (human) (UniProt Q16539). Description: Inhibition of MAPK14 Kinase Activity.
MAPK14 (human), sequence (Q16539 whole entry, looked up): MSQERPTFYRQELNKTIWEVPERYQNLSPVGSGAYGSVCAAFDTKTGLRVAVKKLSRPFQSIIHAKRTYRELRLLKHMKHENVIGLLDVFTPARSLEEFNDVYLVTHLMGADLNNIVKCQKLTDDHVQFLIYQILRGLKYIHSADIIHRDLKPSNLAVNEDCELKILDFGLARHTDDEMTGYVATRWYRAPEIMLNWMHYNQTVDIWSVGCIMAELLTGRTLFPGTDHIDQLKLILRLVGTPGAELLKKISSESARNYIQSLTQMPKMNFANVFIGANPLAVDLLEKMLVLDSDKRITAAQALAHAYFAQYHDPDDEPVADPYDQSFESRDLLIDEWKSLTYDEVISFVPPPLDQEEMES

In the case of `Cc1nc(-c2ccc(F)cc2)c(-c2nc(C(=O)NCCOc3ccccc3)cs2)s1`, the IC50 is no more than 1 µM.
Next, `CC(C)NC(=O)c1csc(-c2oc(CNC(=O)c3ccncc3)nc2-c2ccc(F)cc2)n1`: no more than 1 µM; `CC(C)NC(=O)c1csc(-c2oc(CNC(=O)c3ccccc3Cl)nc2-c2ccc(F)cc2)n1`: no more than 1 µM.
Then `COc1ccc(CNC(=O)c2csc(-c3sc(C)nc3-c3ccc(F)cc3)n2)cc1OC`, with no more than 1 µM; and `CC(C)NC(=O)c1csc(-c2oc(CNC(=O)C=Cc3ccccc3)nc2-c2ccc(F)cc2)n1`, with no more than 1 µM; and `Cc1nc(-c2ccc(F)cc2)c(-c2nc(C(=O)N[C@@H](C)c3ccccc3)cs2)s1`, with no more than 1 µM.
As for `CC(C)NC(=O)c1csc(-c2oc(CNC(=O)c3cc(F)c(F)cc3[N+](=O)[O-])nc2-c2ccc(F)cc2)n1`, the IC50 is no more than 1 µM.
Then `CC(C)NC(=O)c1csc(-c2oc(CNC(=O)c3ccc(C=O)cc3)nc2-c2ccc(F)cc2)n1`, with no more than 1 µM.
For `Cc1nc(-c2ccc(F)cc2)c(-c2nc(C(=O)NCc3ccc(Cl)cc3)cs2)s1`, the IC50 was no more than 1 µM.
Next, `CC(C)NC(=O)c1csc(-c2oc(CNC(=O)c3cc(C(C)C)cc(C(C)C)c3O)nc2-c2ccc(F)cc2)n1`: no more than 1 µM.
As to `CC(C)NC(=O)c1csc(-c2oc(CN3CCN(C(=O)c4ccccc4Cc4ccccc4)CC3)nc2-c2ccc(F)cc2)n1`, the IC50 was no more than 1 µM.
Regarding `CC(C)NC(=O)c1csc(-c2oc(CNC(=O)CC#N)nc2-c2ccc(F)cc2)n1`, the IC50 was no more than 1 µM.
Then `CCC(=O)C(=O)NCc1nc(-c2ccc(F)cc2)c(-c2nc(C(=O)NC(C)C)cs2)o1`, with no more than 1 µM.
Then `CC(C)NC(=O)c1csc(-c2oc(CN3CCN(C(=O)C(Cl)(Cl)Cl)CC3)nc2-c2ccc(F)cc2)n1`, with no more than 1 µM; and `CC(C)NC(=O)c1csc(-c2oc(CNC(=O)C=Cc3ccccc3O)nc2-c2ccc(F)cc2)n1`, with no more than 1 µM.
Then `CC(C)NC(=O)c1csc(-c2c(-c3ccc(F)cc3)n[nH]c2C2CCN(C(=O)C=O)CC2)n1`, with no more than 1 µM; and `CC(C)NC(=O)c1csc(-c2c(-c3ccc(F)cc3)n[nH]c2C2CCN(C(=O)c3ccc(C(C)(C)C)cc3)CC2)n1`, with no more than 1 µM; and `Cc1cccc(C(=O)N2CCN(Cc3nc(-c4ccc(F)cc4)c(-c4nc(C(=O)NC(C)C)cs4)o3)CC2)c1O`, with no more than 1 µM.
`CC(=O)N1CCN(Cc2nc(-c3ccc(F)cc3)c(-c3nc(C(=O)NC(C)C)cs3)o2)CC1` displayed a half-inhibitory concentration (IC50) of no more than 1 µM.
As to `Cc1[nH]nc(-c2ccc(F)cc2)c1-c1nc(C(=O)NCc2cccnc2)cs1`, the IC50 is no more than 1 µM.
Then `CC(C)NC(=O)c1csc(-c2c(-c3ccc(F)cc3)noc2CN(C)C)n1`, with no more than 1 µM; and `CC(C)NC(=O)c1csc(-c2oc(CNC(=O)c3ccc(C#N)cc3)nc2-c2ccc(F)cc2)n1`, with no more than 1 µM; and `Cc1onc(-c2ccc(Cl)cc2)c1-c1ccn(C(=O)NC(C)CO)n1` (configuration not stated), with no more than 1 µM.
`CC(C)NC(=O)c1csc(-c2c(-c3ccc(F)cc3)n[nH]c2C2CCN(C(=O)c3cccnc3)CC2)n1` showed an IC50 of no more than 1 µM.
Then `CC(C)NC(=O)c1csc(-c2oc(CNC(=O)c3cc(O)c(O)c(O)c3)nc2-c2ccc(F)cc2)n1`, with no more than 1 µM; and `CC(C)NC(=O)c1csc(-c2oc(CNC(=O)c3cnc[nH]3)nc2-c2ccc(F)cc2)n1`, with no more than 1 µM.
Next, `CC(C)NC(=O)c1csc(-c2c(-c3ccc(F)cc3)n[nH]c2C2CCN(C(=O)C3CCCO3)CC2)n1` (configuration not stated): no more than 1 µM; `Cc1nc(-c2ccc(F)cc2)c(-c2nc(C(=O)NCc3ccc(F)c(Cl)c3)cs2)s1`: no more than 1 µM; `Cc1nc(-c2ccc(F)cc2)c(-c2nc(C(=O)Nc3ccc(C(F)(F)F)cc3C(F)(F)F)cs2)s1`: no more than 1 µM.
Then `Cc1nc(-c2ccc(F)cc2)c(-c2nc(C(=O)NC(C)C)cs2)o1`, with no more than 1 µM; and `Cc1onc(-c2ccccc2)c1-c1ccn(C(=O)NC(C)C)n1`, with no more than 1 µM; and `CC(C)NC(=O)c1csc(-c2oc(CNC(=O)C(C)O)nc2-c2ccc(F)cc2)n1` (configuration not stated), with no more than 1 µM.
